# Test results reported in the supplement of paper PMC11208160.
# Assay: recombinant barcode read abundance after kanamycin selection (control-corrected) (log10(CPM+1)); higher = more efficient recombination; sequences stand for … in AGTGCAGAGAAAATCGGCCAGTTTTCTCTGCCTGCAGTCCGCATGCCGT…ATTTATGCAGCGGACTGCCTTTCTCCCAAAGTGATAAACCGGACAGTATCATGGACCGGTTTTCCCGGTAATCCGTATTTGCAAGGTTGGTTTCACT; site = the 11-nt target
# How it was run: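 Recombination efficiency draws on barcodes counted at recombinant junctions in a pooled E. coli screen of targets paired with IS621 bridge RNA target-binding loops. The counts were converted to counts per million, averaged and corrected against the chloramphenicol/ampicillin LB agar control, then reported as log10(CPM+1). Selection plates held chloramphenicol/ampicillin/kanamycin with 0.1 mM IPTG, with two replicates per condition.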
row,Sequence,recombinant barcode read abundance (log10)
1,"AGTCTTACTTGGGTTCTAACCTGTTGCCAAA [AGTCTTACTTG_LTGcore_CT_RTGcore_TT] (site AGTCTTACTTG) (LTG core: CT, RTG core: TT)",0.0465
2,"TCTACCCGGTGGGTTCTAACCTGTTGCTGAG [TCTACCCCTCA_LTGcore_GG_RTGcore_CT] (site TCTACCCCTCA) (LTG core: GG, RTG core: CT)",0.0172
3,"TAAGAATTATGGGTTCTAACCTGTTGCCTTA [TAAGAATCTAG_LTGcore_TA_RTGcore_TA] (site TAAGAATCTAG) (LTG core: TA, RTG core: TA)",0.111
4,"AAACAGTCATGGGTTCTAACCTGTTGCCTTG [AAACAGTCTAG_LTGcore_CA_RTGcore_CA] (site AAACAGTCTAG) (LTG core: CA, RTG core: CA)",0.25
5,"GGGCGTGCTTGGGTTCTAACCTGTTGCCTAA [GGGCGTGCTAG_LTGcore_CT_RTGcore_TT] (site GGGCGTGCTAG) (LTG core: CT, RTG core: TT)",0.104
6,"GGCTCCCTGTGGGTTCTAACCTGTTGCGGAG [GGCTCCCCTCC_LTGcore_TG_RTGcore_CT] (site GGCTCCCCTCC) (LTG core: TG, RTG core: CT)",0.046
7,"TGTATTCCTTGGGTTCTAACCTGTTGCCTGC [TGTATTCCTAG_LTGcore_CT_RTGcore_GC] (site TGTATTCCTAG) (LTG core: CT, RTG core: GC)",0.133
8,"CGCGCCCCTTGGGTTCTAACCTGTTGCGGCG [CGCGCCCCTCC_LTGcore_CT_RTGcore_CG] (site CGCGCCCCTCC) (LTG core: CT, RTG core: CG)",0.0742
9,"GGGCGTGTCTGGGTTCTAACCTGTTGCCTGA [GGGCGTGCTAG_LTGcore_TC_RTGcore_TC] (site GGGCGTGCTAG) (LTG core: TC, RTG core: TC)",0.157
10,"AAACAGTAATGGGTTCTAACCTGTTGCCTAG [AAACAGTCTAG_LTGcore_AA_RTGcore_CT] (site AAACAGTCTAG) (LTG core: AA, RTG core: CT)",0.01
11,"GCGCGACCTTGGGTTCTAACCTGTTGCTTTG [GCGCGACCTAA_LTGcore_CT_RTGcore_CA] (site GCGCGACCTAA) (LTG core: CT, RTG core: CA)",0.102
12,"GTCGCCCTATGGGTTCTAACCTGTTGCTAAG [GTCGCCCCTTA_LTGcore_TA_RTGcore_CT] (site GTCGCCCCTTA) (LTG core: TA, RTG core: CT)",0.0747
13,"CGAGCCCCTTGGGTTCTAACCTGTTGCTGGC [CGAGCCCCTCA_LTGcore_CT_RTGcore_GC] (site CGAGCCCCTCA) (LTG core: CT, RTG core: GC)",0.405
14,"AGGAGGTGATGGGTTCTAACCTGTTGCCTTC [AGGAGGTCTAG_LTGcore_GA_RTGcore_GA] (site AGGAGGTCTAG) (LTG core: GA, RTG core: GA)",0.218
15,"GGGAGCCTATGGGTTCTAACCTGTTGCTGAG [GGGAGCCCTCA_LTGcore_TA_RTGcore_CT] (site GGGAGCCCTCA) (LTG core: TA, RTG core: CT)",0.0839
16,"TCGCGACGATGGGTTCTAACCTGTTGCCGAG [TCGCGACCTCG_LTGcore_GA_RTGcore_CT] (site TCGCGACCTCG) (LTG core: GA, RTG core: CT)",0.241
17,"GAGTCCACTTGGGTTCTAACCTGTTGCGTCC [GAGTCCACTAC_LTGcore_CT_RTGcore_GG] (site GAGTCCACTAC) (LTG core: CT, RTG core: GG)",0.482
18,"AGGAGGTCGTGGGTTCTAACCTGTTGCCTCG [AGGAGGTCTAG_LTGcore_CG_RTGcore_CG] (site AGGAGGTCTAG) (LTG core: CG, RTG core: CG)",0.384
19,"TAGAGGGCTTGGGTTCTAACCTGTTGCGGAC [TAGAGGGCTCC_LTGcore_CT_RTGcore_GT] (site TAGAGGGCTCC) (LTG core: CT, RTG core: GT)",1.38
20,"GGGCGTGATTGGGTTCTAACCTGTTGCCTAG [GGGCGTGCTAG_LTGcore_AT_RTGcore_CT] (site GGGCGTGCTAG) (LTG core: AT, RTG core: CT)",0.308
21,"ATGTCCCTATGGGTTCTAACCTGTTGCTCTA [ATGTCCCCTGA_LTGcore_TA_RTGcore_TA] (site ATGTCCCCTGA) (LTG core: TA, RTG core: TA)",0.208
22,"TAGAGGGAGTGGGTTCTAACCTGTTGCGGCT [TAGAGGGCTCC_LTGcore_AG_RTGcore_AG] (site TAGAGGGCTCC) (LTG core: AG, RTG core: AG)",0.0923
23,"ACGGGACGTTGGGTTCTAACCTGTTGCAGAG [ACGGGACCTCT_LTGcore_GT_RTGcore_CT] (site ACGGGACCTCT) (LTG core: GT, RTG core: CT)",0.463

row,Sequence,recombinant barcode read abundance (log10)
1,"GGGCGGACCTGGGTTCTAACCTGTTGCGGGG [GGGCGGACTCC_LTGcore_CC_RTGcore_CC] (site GGGCGGACTCC) (LTG core: CC, RTG core: CC)",0.132
2,"TCTACCCCTTGGGTTCTAACCTGTTGCTGAC [TCTACCCCTCA_LTGcore_CT_RTGcore_GT] (site TCTACCCCTCA) (LTG core: CT, RTG core: GT)",0.169
3,"AGGCGGGGTTGGGTTCTAACCTGTTGCGGAC [AGGCGGGCTCC_LTGcore_GT_RTGcore_GT] (site AGGCGGGCTCC) (LTG core: GT, RTG core: GT)",0.0704
4,"TCGCGACGATGGGTTCTAACCTGTTGCCGTC [TCGCGACCTCG_LTGcore_GA_RTGcore_GA] (site TCGCGACCTCG) (LTG core: GA, RTG core: GA)",0.123
5,"GGGCGGACTTGGGTTCTAACCTGTTGCGGAA [GGGCGGACTCC_LTGcore_CT_RTGcore_TT] (site GGGCGGACTCC) (LTG core: CT, RTG core: TT)",1.23
6,"TGATACCCTTGGGTTCTAACCTGTTGCGTGA [TGATACCCTAC_LTGcore_CT_RTGcore_TC] (site TGATACCCTAC) (LTG core: CT, RTG core: TC)",0.864
7,"AAACAGTCGTGGGTTCTAACCTGTTGCCTCG [AAACAGTCTAG_LTGcore_CG_RTGcore_CG] (site AAACAGTCTAG) (LTG core: CG, RTG core: CG)",0.227
8,"AGGCCTCGATGGGTTCTAACCTGTTGCCTTC [AGGCCTCCTAG_LTGcore_GA_RTGcore_GA] (site AGGCCTCCTAG) (LTG core: GA, RTG core: GA)",0.206
9,"GGGCGGAACTGGGTTCTAACCTGTTGCGGAG [GGGCGGACTCC_LTGcore_AC_RTGcore_CT] (site GGGCGGACTCC) (LTG core: AC, RTG core: CT)",0.449
10,"GGGCGTGCTTGGGTTCTAACCTGTTGCCTAG [GGGCGTGCTAG_LTGcore_CT_RTGcore_CT] (site GGGCGTGCTAG) (LTG core: CT, RTG core: CT)",1.41
11,"GAGGCCTCATGGGTTCTAACCTGTTGCCATG [GAGGCCTCTTG_LTGcore_CA_RTGcore_CA] (site GAGGCCTCTTG) (LTG core: CA, RTG core: CA)",0.0323
12,"TTATAAACTTGGGTTCTAACCTGTTGCCTGA [TTATAAACTAG_LTGcore_CT_RTGcore_TC] (site TTATAAACTAG) (LTG core: CT, RTG core: TC)",0.137
13,"CGGTCCCCTTGGGTTCTAACCTGTTGCCATC [CGGTCCCCTTG_LTGcore_CT_RTGcore_GA] (site CGGTCCCCTTG) (LTG core: CT, RTG core: GA)",0.208
14,"TAGAGGGTTTGGGTTCTAACCTGTTGCGGAA [TAGAGGGCTCC_LTGcore_TT_RTGcore_TT] (site TAGAGGGCTCC) (LTG core: TT, RTG core: TT)",0.0961
15,"GGCTCCCCTTGGGTTCTAACCTGTTGCGGGT [GGCTCCCCTCC_LTGcore_CT_RTGcore_AC] (site GGCTCCCCTCC) (LTG core: CT, RTG core: AC)",0.0344
16,"GCGCGACCGTGGGTTCTAACCTGTTGCTTAG [GCGCGACCTAA_LTGcore_CG_RTGcore_CT] (site GCGCGACCTAA) (LTG core: CG, RTG core: CT)",0.217
17,"TAGAGGGAGTGGGTTCTAACCTGTTGCGGAG [TAGAGGGCTCC_LTGcore_AG_RTGcore_CT] (site TAGAGGGCTCC) (LTG core: AG, RTG core: CT)",0.0663
18,"TCGCGACTATGGGTTCTAACCTGTTGCCGAG [TCGCGACCTCG_LTGcore_TA_RTGcore_CT] (site TCGCGACCTCG) (LTG core: TA, RTG core: CT)",0.0865
19,"GGCTCCCCCTGGGTTCTAACCTGTTGCGGAG [GGCTCCCCTCC_LTGcore_CC_RTGcore_CT] (site GGCTCCCCTCC) (LTG core: CC, RTG core: CT)",0
20,"AAACACACTTGGGTTCTAACCTGTTGCCTAG [AAACACACTAG_LTGcore_CT_RTGcore_CT] (site AAACACACTAG) (LTG core: CT, RTG core: CT)",2
21,"TCGCGACCTTGGGTTCTAACCTGTTGCCGCA [TCGCGACCTCG_LTGcore_CT_RTGcore_TG] (site TCGCGACCTCG) (LTG core: CT, RTG core: TG)",0.072
22,"TGTATTCACTGGGTTCTAACCTGTTGCCTAG [TGTATTCCTAG_LTGcore_AC_RTGcore_CT] (site TGTATTCCTAG) (LTG core: AC, RTG core: CT)",0.0447
